Results: US20240247015A1, “PHOSPHORUS DERIVATIVES AS NOVEL SOS1 INHIBITORS” (BAYER AKTIENGESELLSCHAFT, priority 2021, published 2024)

Molecular target: interaction of human SOS1 (SOS1) with human K-RasG12C (Homo sapiens (Human), UniProt Q07889)
Experiment: Biochemical assay: hK-RasG12C interaction assay with hSOS1 (HTRF)
Format: binding
Conditions: GST-hK-RasG12C with His-hSOS1, 60 min incubation at 20° C., mean, read-out: K-RasG12C - SOS interaction assay IC50 (mean)
Outline: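 Compounds, duplicates at 11 concentrations from 0.073 nM to 20 µM, were preincubated 2 min with 10 nM GST-hK-RasG12C, then 20 nM His-hSOS1 was added, all at 20 °C. After 60 min, 665/620 nm HTRF ratio normalized to DMSO and SOS1-free controls; IC50 by 4-parameter fit.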

Chain of interaction of human SOS1 (SOS1) with human K-RasG12C (Q07889 564-1049 limits assumed): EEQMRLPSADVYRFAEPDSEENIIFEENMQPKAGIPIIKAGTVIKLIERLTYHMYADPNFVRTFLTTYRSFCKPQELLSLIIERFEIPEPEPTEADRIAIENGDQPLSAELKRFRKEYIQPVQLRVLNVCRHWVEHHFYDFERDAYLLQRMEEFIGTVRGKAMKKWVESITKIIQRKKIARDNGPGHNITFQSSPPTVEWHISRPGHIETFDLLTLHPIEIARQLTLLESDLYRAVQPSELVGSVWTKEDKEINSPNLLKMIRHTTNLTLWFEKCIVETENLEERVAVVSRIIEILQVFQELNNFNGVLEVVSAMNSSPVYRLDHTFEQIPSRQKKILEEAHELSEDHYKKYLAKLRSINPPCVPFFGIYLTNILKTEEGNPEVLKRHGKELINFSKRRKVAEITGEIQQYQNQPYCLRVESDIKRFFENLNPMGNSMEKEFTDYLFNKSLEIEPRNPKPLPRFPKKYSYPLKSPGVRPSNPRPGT

Row | SMILES | IC50 [nM]
1 | CCNC(=O)C(F)(F)c1cccc([C@@H](C)Nc2nc(C)nc3cnc(P(C)(C)=O)cc23)c1F [Example 49, 2-{3-[(1R)-1-{[6-(dimethylphosphoryl)-2-methylpyrido[3,4-d]pyrimidin-4-yl]amino}ethyl]-2-fluorophenyl}-N-ethyl-2,2-difluoroacetamide] | 87.5
2 | Cc1nc(N[C@H](C)c2cccc(C(F)(F)F)c2C)c2cc(P(=O)(C(C)C)C(C)C)ncc2n1 [Example 98, 6-[di(propan-2-yl)phosphoryl]-2-methyl-N-{(1R)-1-[2-methyl-3-(trifluoromethyl)phenyl]ethyl}pyrido[3,4-d]pyrimidin-4-amine] | 139
3 | CCP(C)(=O)c1cc2c(N[C@H](C)c3cccc(C(F)(F)CO)c3F)nc(C)nc2cn1 (single isomer, unassigned) [Example 132] | 11.7
4 | CC(=O)N1CCP(=O)(c2cc3c(N[C@H](C)c4cccc(C(F)(F)C(=O)NC5CC5)c4F)nc(C)nc3cn2)CC1 [Example 44, 2-{3-[(1R)-1-{[6-(1-acetyl-4-oxo-1,4lambda^5-azaphosphinan-4-yl)-2-methylpyrido[3,4-d]pyrimidin-4-yl]amino}ethyl]-2-fluorophenyl}-N-cyclopropyl-2,2-difluoroacetamide] | 15.9
5 | Cc1nc(N[C@H](C)c2cccc(C(F)(F)F)c2C)c2cc(P3(=O)CCN(C(=O)NCC(F)F)CC3)ncc2n1 [Example 185] | 3.86
6 | Cc1nc(N[C@H](C)c2cccc(C(F)F)c2F)c2cc(P3(=O)CCN(C(=O)C4CC4)CC3)ncc2n1 [Example 163, 1-(cyclopropanecarbonyl)-4-[4-({(1R)-1-[3-(difluoromethyl)-2-fluorophenyl]ethyl}amino)-2-methylpyrido[3,4-d]pyrimidin-6-yl]-1,4lambda^5-azaphosphinan-4-one] | 4.77
7 | Cc1nc(N[C@H](C)c2cccc(C(F)F)c2F)c2cc(P3(=O)CCNCC3)ncc2n1 [Example 9, 4-[4-({(1R)-1-[3-(difluoromethyl)-2-fluorophenyl]ethyl}amino)-2-methylpyrido[3,4-d]pyrimidin-6-yl]-1,4lambda^5-azaphosphinan-4-one] | 22.3
8 | Cc1nc(N[C@H](C)c2cccc(C(F)(F)[C@H](O)C(C)(C)C)c2F)c2cc(P(C)(C)=O)ncc2n1 (relative stereo) [Example 137, (2R*)-1-{3-[(1R)-1-{[6-(dimethylphosphoryl)-2-methylpyrido[3,4-d]pyrimidin-4-yl]amino}ethyl]-2-fluorophenyl}-1,1-difluoro-3,3-dimethylbutan-2-ol] | 4.04
9 | CC(=O)N1CCP(=O)(c2cc3c(N[C@H](C)c4cccc(C(F)(F)F)c4C)nc(C)nc3c(CO)n2)CC1 [Example 34, 1-acetyl-4-[8-(hydroxymethyl)-2-methyl-4-({(1R)-1-[2-methyl-3-(trifluoromethyl)phenyl]ethyl}amino)pyrido[3,4-d]pyrimidin-6-yl]-1,4lambda^5-azaphosphinan-4-one] | 72.8
10 | CCP(C)(=O)c1cc2c(N[C@H](C)c3cccc(C(F)(F)C(C)O)c3F)nc(C)nc2cn1 (single isomer, unassigned) [Example 75, (2R*)-1-{3-[(1R)-1-{{6-[ethyl(methyl)phosphoryl]-2-methylpyrido[3,4-d]pyrimidin-4-yl}amino)ethyl]-2-fluorophenyl}-1,1-difluoropropan-2-ol] | 15.3
11 | CCOC(=O)N1CCP(=O)(c2cc3c(N[C@H](C)c4cccc(C(F)F)c4F)nc(C)nc3cn2)CC1 [Example 187] | 12
12 | CC(=O)N1CCP(=O)(c2cc3c(N[C@H](C)c4cccc(C(F)(F)F)c4C)nc(C)nc3c(C)n2)CC1 [Example 146, (R)-1-(4-(2,8-dimethyl-4-((1-(2-methyl-3-(trifluoromethyl)phenyl)ethyl)amino)pyrido[3,4-d]pyrimidin-6-yl)-4-oxido-1,4-azaphosphinan-1-yl)ethan-1-one] | 81
